Marks after values point to notes of the source that are not given here.

The results in this text go back to patent US20110136751A1, “Use of Polyphenols in the Treatment of Cancer” (Green Molecular, priority 2009, published 2011).

In one series the test system is HT-29 xenografts. In words: HT-29 xenograft growth. Type of series: in vivo, nu/nu nude mice. The note with it: Table 3B; HT-29; 30 days after inoculation. The procedure:
Tumor growth was measured during a 30-day period. Tumor volume, one week after inoculation and before PF administration, was of 56+15 mm3. A. […] B. Growth profile of control ([…]) and t-PTER- and QUER (∘) (20 mg of each PF/kg)-treated HT-29-bearing mice. Data are means±S.D. of 18-20 mice per group. The significant test refers, for all groups, to the comparison between PTER and/or QUER and controls (treated with physiological saline) (*P<0.01). For HT-29 cancer cell xenograft experiments, female nu/nu nude mice (ages 6 to 8 weeks; […] Tumor volume was calculated based on two dimensions, measured using calipers, and was expressed in cubic millimeters according to the formula: […] For histological analysis the surgical and xenograft tissue samples were fixed in 4% formaldehyde, paraffin embedded, and stained with hematoxilin & eosin and safran. […] This study was conducted in compliance with international laws and policies (EEC Directive 86/609, OJ L 358. 1, Dec. 12, 1987; and NIH Guide for the Care and Use of Laboratory Animals, NIH Publ. No. 85-23, 1985). X rays were administered using a […] SL75 linear accelerator from Philips. For this purpose each mouse was anesthetized with nembutal (50 mg/kg i.p.), and fixed on a Perspex platform.

Another series relates to SOD2. In words: SOD activity in xenograft samples. Format: in vivo, human. The procedure: (§1) Tumor tissue was homogenized in 0.1M phosphate buffer (pH 7.2) at 4° C.
(§2) Superoxide dismutase (SOD) activity was measured as described by Flohé and Otting (14), using 2 mM cyanide in the assay medium to distinguish mangano-type enzyme (SOD2) from the cuprozinc type (SOD1).
In general terms: Xenograft models place foreign cells or tissue in a host animal.

The subject of a further series is SOD1. In words: SOD activity in xenograft samples. Format: in vivo, human. As to conditions: single treatment (PQ or SOD2-AS). The procedure: as §1, §2
For series [1], the system named is HT-29/Tet-bcl-2 xenografts. Put plainly: HT-29/Tet-bcl-2 xenograft growth. Format: in vivo, mice. The note with it: Table 3B, 30 days after inoculation. The procedure:
For HT-29 cancer cell xenograft experiments, female nu/nu nude mice (ages 6 to 8 weeks; Charles Rivers Laboratories, Wilmington, Mass.) were inoculated s.c. with 5×10^6 HT-29 or HT-29-GFP cells per mouse. Tumor volume was calculated based on two dimensions, measured using calipers, and was expressed in cubic millimeters according to the formula: V=0.5a×b2, where a and b are the long and the short diameters of the tumor, respectively. For histological analysis the surgical and xenograft tissue samples were fixed in 4% formaldehyde, paraffin embedded, and stained with hematoxilin & eosin and safran. Mice were monitored for at least 30 days after inoculation, and tumor measurements were taken on day 5, 10, 15, 20, 25, and 30. This study was conducted in compliance with international laws and policies (EEC Directive 86/609, OJ L 358. 1, Dec. 12, 1987; and NIH Guide for the Care and Use of Laboratory Animals, NIH Publ. No. 85-23, 1985). […]
(§3) The Tet-off gene expression system (Clontech, Palo Alto, Calif.) was used, as previously reported (17), to insert the human bcl-2 gene and for transfection into HT-29 cells following manufacturer's instructions. Bcl-2 protein was quantitated in the soluble cytosolic fraction by enzyme immunoassay (17) using a monoclonal antibody-based assay from Sigma (one unit of Bcl-2 was defined as the amount of Bcl-2 protein in 1000 non-transfected HT-29 cells).

Series [2] has as its system bcl-2. Put plainly: Bcl-2 protein enzyme immunoassay in xenograft samples. Type of series: in vivo, human. The note with it: single treatment (PQ or SOD2-AS).
From the text: as §3

A further series concerns NF-κB p50/65. Put plainly: NF-κB DNA binding ELISA in HT-29 nuclear extracts. The note with it: HT-29 cells; p65 siRNA transfection or 10 μg DHMEQ/ml, 2 h after removing the inhibitor. Type of series: cell-based, human. The procedure:
HT-29 cells were cultured and treated with PFs as indicated in the caption to FIG. 1. (A) NF-κB binding to DNA (measured 3 h after the last PF addition). Recombinant human TNFα (0.5 nM, Sigma, St. Louis, Mo.) was added 6 h before the last PF addition. IκBα (B) and P-IκBα (C) analysis by western blot (lane 1, TNFα; lane 2, control; lane 3, […]). Relative densitometric intensities for protein bands from western blots of IκBα and P-IκBα) were normalized to β-actin (black bar, TNFα; white bar, control; grey bar, […]). […] Transfection of siRNA was performed as explained under “Materials and Methods”. (A) western blot analysis of p65 in cells transfected with p65 siRNA, or NS siRNA. For comparison NF-κB binding to DNA (B) and bcl-2 expression (RT-PCR) (C) were determined in HT-29 cells transfected with p65 siRNA or treated with dehydroxymethylepoxyquinomicin (DHMEQ). […] Nuclear extract were prepared as previously described (18). An enzyme linked immunosorbent assay (ELISA) was performed in line with the manufacturer's protocol for a commercial kit (Chemiluminiscent NF-κB p50/65 Transcription Factor Assay, Oxford Biomedical Research, Oxford, Mich.). […] The DNA bound NF-κB is selectively recognized by the primary antibody, which, in turn, is detected by the secondary antibodyalkaline phosphatase conjugate. […]
A general note: ELISA stands for enzyme-linked immunosorbent assay.

Series [3] relates to bcl-2. Put plainly: bcl-2 expression (RT-PCR) in cultured HT-29 cells. Type of series: cell-based, human. As to conditions: p65 siRNA transfection or 10 μg DHMEQ/ml, 12 h after removing the inhibitor. The procedure:
Transfection of siRNA was performed as explained under “Materials and Methods”. (A) western blot analysis of p65 in cells transfected with p65 siRNA, or NS siRNA. For comparison NF-κB binding to DNA (B) and bcl-2 expression (RT-PCR) (C) were determined in HT-29 cells transfected with p65 siRNA or treated with dehydroxymethylepoxyquinomicin (DHMEQ). For this purpose cultured HT-29 cells (24 h after seeding) were incubated in the absence or in the presence of 10 μg DHMEQ/ml, and NF-κB activation and bcl-2 expression were measured 2 h and 12 h, respectively, after removing the inhibitor.
Total RNA was isolated using the trizol kit from Invitrogen and following manufacturer's instructions. cDNA was obtained using a random hexamer primer and a MultiScribe Reverse Transcriptase kit as described by the manufacturer (TaqMan RT Reagents, Applied Biosystems, Foster City, Calif.). […]
Real-time quantitation of the mRNA relative to GAPDH was performed with a SYBR Green I assay, and a iCycler detection system (Biorad, Hercules, Calif.). […] The increase in fluorescence was measured in real time during the extension step. The threshold cycle (CT) was determined, and then the relative gene expression was expressed as: fold change=2^−Δ(ΔCT), where ΔCT=CT target−CT GAPDH, and Δ (ΔCT)=ΔCT treated−ΔCT control. […]

With “SOD2-AS: Fully phosphorothioated 21-mer human SOD2 antisense oligodeoxynucleotide, 5′-GGAACCUCACAUCAACGCGCA-3′ (DNA, all phosphorothioate, methylation of C and T or U not given here)”, the Tumor volume with HT-29 xenografts is 2337 ± 266^b mm^3; in series [1], 2942 ± 387^ab mm^3. The SOD2 activity with SOD2 (HT-29/tet-Bcl-2 xenograft, single treatment (PQ or SOD2-AS)) is 0.33 ± 0.12 Units/mg protein; in the series with SOD2 (HT-29 xenograft, single treatment (PQ 20 mg each/kg or SOD2-AS 5 mg/kg each 3 days)) it was 0.27 ± 0.056^b Units/mg protein. Further, the SOD1 activity with SOD1 (HT-29/tet-Bcl-2 xenograft) turned out to be 6.3 ± 0.48 Units/mg protein; in the series with SOD1 (HT-29 xenograft), 5.77 ± 0.62 Units/mg protein. Further, the Bcl-2 levels is listed as 81 ± 9^a Units/mg protein in the series on bcl-2 [2] (HT-29/tet-Bcl-2 xenograft) and 19 ± 3 Units/mg protein in the series with bcl-2 [2] (HT-29 xenograft).
For `O=C(NC1=CC(=O)[C@H]2O[C@H]2[C@H]1O)c1ccccc1O` [DHMEQ, dehydroxymethylepoxyquinomicin], the “NF-κB binding to DNA” value in the series with NF-κB p50/65 was “significant decrease”. Besides, the bcl-2 expression entry in the series with bcl-2 [3] is recorded as “significant decrease”.
